Converted amounts (≈) assume the structure as drawn. Where two headings read alike, the source gives them in different places.
Key:
[1] = system: E. coli ESS; assay: MIC by serial dilution in nutrient agar with 5% chocolated horse blood; type: cell-based; settings: Escherichia coli; Table 1
[2] = system: Ps. aeruginosa 10662; assay: as above; type: cell-based; settings: Pseudomonas aeruginosa
[3] = system: Strep. pyogenes A 64/848; assay: as above; type: cell-based; settings: Streptococcus pyogenes, A64/848; Table 1
[4] = system: M. suipneumoniae Str. 11; assay: in vitro MIC by serial dilution in Friis modified agarose medium; type: cell-based; settings: Mesomycoplasma hyopneumoniae, Table 3
[5] = system: M. suipneumoniae UCD 1; assay: as above; type: cell-based; settings: Mesomycoplasma hyopneumoniae, UCD1; Table 3
[6] = system: M. suipneumoniae TAM 6N; assay: as above; type: cell-based; settings: Mesomycoplasma hyopneumoniae, TAM6N; Table 3
[7] = system: M. hyorhinis ATCC 25021; assay: as above; type: cell-based; settings: Mesomycoplasma hyorhinis, ATCC25021; Table 3
[8] = system: M. hyosnoviae ATCC 25591; assay: as above; type: cell-based; settings: Table 3
[9] = system: M. bovis NCTC 10131; assay: microbe, parasite or virus in culture; type: cell-based; settings: NCTC10131
[10] = Mouse blood levels of Example 1 following oral and subcutaneous administration; type: in vivo, albino male mice; settings: read-out: blood conc.; for concentration at 0.5 h: 30 min; for concentration at 1 h: 60 min; for concentration at 2 h: 120 min; for concentration at 4 h: 240 min
Description: Mouse blood levels of Example 1 following its oral and subcutaneous administration
Blood levels were assessed in albino male mice (18-22 g CSI). The dose was 50 mg/kg administered in a 10% DMF solution orally and subcutaneously. The mice were killed at intervals up to 4 hours and the blood assayed microbiologically using B. subtilis.

[11] = system: E. coli NCTC 10418; assay: MIC by agar dilution, veterinary bacteria; settings: Escherichia coli, NCTC10418, 24 h
[12] = system: S.dublin S7; assay: MIC by agar dilution, veterinary bacteria; settings: Salmonella enterica, S7, 24 h
[13] = system: S. typhimurium S18; assay: MIC by agar dilution, veterinary bacteria; settings: Salmonella enterica, 24 h
[14] = system: Bord. bronchiseptica B09; assay: MIC by agar dilution, veterinary bacteria; settings: Bordetella bronchiseptica, B09, 24 h
[15] = system: Corynebacterium pyogenes CY1; assay: MIC by agar dilution, veterinary bacteria; settings: CY1, 24 h
[16] = system: Staph. aureus B4 (pen resis); assay: MIC by agar dilution, veterinary bacteria; settings: Staphylococcus aureus, 24 h
[17] = system: Strep. agalactiae SPA1; assay: MIC by agar dilution, veterinary bacteria; settings: Streptococcus agalactiae, SPA1, 24 h
[18] = Mouse blood levels of Example 3 following oral and subcutaneous administration; type: in vivo, albino male mice (strain OLAC: MF-1); settings: read-out: blood conc.; for concentration at 0.5 h: 30 min; for concentration at 0.75 h: 45 min; for concentration at 1 h: 60 min; for concentration at 1.5 h: 90 min
Description: Mouse blood levels of Example 3 following its oral and subcutaneous administration
Blood levels were assessed in albino male mice (strain OLAC: MF-1, 18-22 g). The dose was 50 mg/kg administered in a 10% ethanol solution orally and subcutaneously. The mice were killed at intervals up to 90 min and the blood assayed microbiologically using B. subtilis ATCC 6633 in TSA at pH 8.0.

[19] = Mean serum concentrations in neonatal piglets after intramuscular or oral administration; type: in vivo; settings: pig; for concentration at 1 h: 60'
Description: Mean serum concentrations in neonatal piglets of Example 3 after intramuscular or oral administration at 50 mg/kg
Blood levels were assessed in neonatal piglets (mean bodyweight ca. 3 kg). The dose was 50 mg/kg administered as a 25 mg/ml of 25% aqueous ethanol solution. Doses were given by intramuscular injection and orally by stomach tube. Piglets were bled at intervals up to 24 hr and the serum assayed microbiologically using B. subtilis ATCC 6633.

[20] = Mean serum concentrations in milk weaned piglets after oral administration; type: in vivo; settings: pig, p.o. 50 mg/kg
Description: Mean serum concentrations in milk weaned piglets of Example 3 after oral administration at 50 mg/kg
Blood levels were assessed in milk weaned piglets (mean bodyweight 4.1 kg). The dose was 50 mg/kg administered orally (intubation) as a 25 mg/ml of 25% aqueous ethanol solution. Piglets were bled at intervals up to […] and the serum assayed microbiologically using B. subtilis ATCC 6633.

[21] = system: Staph. aureus Oxford; assay: MIC by agar dilution, veterinary bacteria; settings: Staphylococcus aureus, 24 h

In the case of CC(=O)C=C(C)CC1OCC(CC2OC2C(C)C(C)O)C(O)C1O [Example 1, 1-[3R,4R-Dihydroxy-5S-(2S,3S-epoxy-5S-hydroxy-4S-methylhexyl)-2,3,5,6-tetrahydropyran-2-S-yl]-2-methylpent-2E-en-4-one], the MIC [1] was 10 µg/mL (≈ 29.2 µM), the MIC ([2]; Table 1, read-out: MIC) was greater than 100 µg/mL and the MIC [3] was 50 µg/mL (≈ 146 µM). It also gave an MIC [4] of 5 µg/mL (≈ 14.6 µM), an MIC [5] greater than 10 µg/mL and an MIC [6] greater than 10 µg/mL. It also gave an MIC [7] of 10 µg/mL (≈ 29.2 µM), an MIC [8] of 5 µg/mL (≈ 14.6 µM) and an MIC [9] of 0.25 µg/mL (≈ 0.73 µM). It also gave a concentration at 5 min ([10]; oral 50 mg/kg) of 5900 ng/mL, a concentration at 10 min ([10]; oral 50 mg/kg) of 7700 ng/mL and a concentration at 20 min ([10]; oral 50 mg/kg) of 4800 ng/mL. For the same compound, the concentration at 0.5 h ([10]; oral 50 mg/kg) was less than 3000 ng/mL, the concentration at 1 h ([10]; oral 50 mg/kg) was less than 3000 ng/mL and the concentration at 2 h ([10]; oral 50 mg/kg) was less than 3000 ng/mL. For the same compound, the concentration at 4 h ([10]; oral 50 mg/kg) was less than 3000 ng/mL, the concentration at 5 min ([10]; sc, subcutaneous 50 mg/kg) was 16400 ng/mL and the concentration at 10 min ([10]; sc, subcutaneous 50 mg/kg) was 15300 ng/mL. For the same compound, the concentration at 20 min ([10]; sc, subcutaneous 50 mg/kg) was 9800 ng/mL, the concentration at 0.5 h ([10]; sc, subcutaneous 50 mg/kg) was 5000 ng/mL and the concentration at 1 h ([10]; sc, subcutaneous 50 mg/kg) was less than 3000 ng/mL. It also gave a concentration at 2 h ([10]; sc, subcutaneous 50 mg/kg) of less than 3000 ng/mL, a concentration at 4 h ([10]; sc, subcutaneous 50 mg/kg) of less than 3000 ng/mL and an MIC [11] greater than 80 µg/mL. For the same compound, the MIC [12] was greater than 80 µg/mL, the MIC [13] was greater than 80 µg/mL and the MIC [14] was 20 µg/mL (≈ 58.4 µM). For the same compound, the MIC [15] was greater than 80 µg/mL, the MIC [16] was 10 µg/mL (≈ 29.2 µM) and the MIC [17] was greater than 80 µg/mL.

In the case of CCCCC(=O)C=C(C)CC1OCC(CC2OC2C(C)C(C)O)C(O)C1O [Example 3, 1-[3R,4R-Dihydroxy-5S-(2S,3S-epoxy-5S-hydroxy-4S-methylhexyl)tetrahydropyran-2S-yl]-2-methyloct-2E-en-4-one], the MIC [1] was 1 µg/mL (≈ 2.6 µM), the MIC ([2]; Table 1, read-out: MIC) was greater than 100 µg/mL and the MIC [4] was 0.5 µg/mL (≈ 1.3 µM). For the same compound, the MIC [5] was 1 µg/mL (≈ 2.6 µM), the MIC [6] was 1 µg/mL (≈ 2.6 µM) and the MIC [7] was 0.5 µg/mL (≈ 1.3 µM). For the same compound, the MIC [8] was 0.25 µg/mL (≈ 0.65 µM), the MIC [9] was 0.025 µg/mL (≈ 0.065 µM) and the concentration at 5 min ([18]; oral 50 mg/kg) was 9400 ng/mL. For the same compound, the concentration at 10 min ([18]; oral 50 mg/kg) was 5100 ng/mL, the concentration at 20 min ([18]; oral 50 mg/kg) was less than 1500 ng/mL and the concentration at 0.5 h ([18]; oral 50 mg/kg) was less than 1500 ng/mL. The concentration at 0.75 h ([18]; oral 50 mg/kg) was less than 1500 ng/mL, the concentration at 1 h ([18]; oral 50 mg/kg) was less than 1500 ng/mL and the concentration at 1.5 h ([18]; oral 50 mg/kg) was less than 1500 ng/mL. It also gave a concentration at 5 min ([18]; sc, subcutaneous 50 mg/kg) of 19800 ng/mL, a concentration at 10 min ([18]; sc, subcutaneous 50 mg/kg) of 15500 ng/mL and a concentration at 20 min ([18]; sc, subcutaneous 50 mg/kg) of 7300 ng/mL. It also gave a concentration at 0.5 h ([18]; sc, subcutaneous 50 mg/kg) of 2200 ng/mL, a concentration at 0.75 h ([18]; sc, subcutaneous 50 mg/kg) of less than 1500 ng/mL and a concentration at 1 h ([18]; sc, subcutaneous 50 mg/kg) of less than 1500 ng/mL. It also gave a concentration at 1.5 h ([18]; sc, subcutaneous 50 mg/kg) of less than 1500 ng/mL, a concentration at 10 min ([19]; im, i.m. 50 mg/kg) of 8500 ng/mL and a concentration at 20 min ([19]; im, i.m. 50 mg/kg) of 7900 ng/mL. The concentration at 40 min ([19]; im, i.m. 50 mg/kg) was 5100 ng/mL, the concentration at 1 h ([19]; im, i.m. 50 mg/kg) was 4300 ng/mL and the concentration at 2 h ([19]; im, i.m. 50 mg/kg) was 1300 ng/mL. It also gave a concentration at 3 h ([19]; im, i.m. 50 mg/kg) of 1200 ng/mL, a concentration at 4 h ([19]; im, i.m. 50 mg/kg) of less than 70 ng/mL and a concentration at 10 min ([19]; po, p.o. 50 mg/kg) of 3100 ng/mL. It also gave a concentration at 20 min ([19]; po, p.o. 50 mg/kg) of 2000 ng/mL, a concentration at 40 min ([19]; po, p.o. 50 mg/kg) of 1400 ng/mL and a concentration at 1 h ([19]; po, p.o. 50 mg/kg) of 830 ng/mL. It also gave a concentration at 2 h ([19]; po, p.o. 50 mg/kg) of 700 ng/mL, a concentration at 3 h ([19]; po, p.o. 50 mg/kg) of 600 ng/mL and a concentration at 4 h ([19]; po, p.o. 50 mg/kg) of less than 70 ng/mL. For the same compound, the concentration at 10 min ([20]; 10') was 2100 ng/mL, the concentration at 20 min ([20]; 20') was 1900 ng/mL and the concentration at 40 min ([20]; 40') was 720 ng/mL. For the same compound, the concentration at 1 h ([20]; 60') was 1100 ng/mL, the concentration at 2 h ([20]; 2 hr) was 480 ng/mL and the concentration at 3 h ([20]; 3 hr) was 370 ng/mL. The concentration at 4 h ([20]; 4 hr) was 200 ng/mL, the concentration at 6 h ([20]; 6 hr) was 110 ng/mL and the concentration at 8 h ([20]; 8 hr) was less than 60 ng/mL. The MIC [11] was greater than 80 µg/mL, the MIC [12] was greater than 80 µg/mL and the MIC [13] was greater than 80 µg/mL. The MIC [14] was 40 µg/mL (≈ 104 µM), the MIC [15] was greater than 80 µg/mL and the MIC [16] was 2.5 µg/mL (≈ 6.5 µM). For the same compound, the MIC [21] was 2.5 µg/mL (≈ 6.5 µM) and the MIC [17] was 10 µg/mL (≈ 26 µM).

With CCC(=O)C=C(C)CC1OCC(CC2OC2C(C)C(C)O)C(O)C1O [Example 2, 1-[3R,4R-Dihydroxy-5S-(2S,3S-epoxy-5-S-hydroxy-4S-methylhexyl)tetrahydropyran-2S-yl]-2-methylhex-2E-en-4-one] the MIC [2] was greater than 50 µg/mL, the MIC [3] was 12.5 µg/mL (≈ 35.1 µM) and the MIC [4] was 2.5 µg/mL (≈ 7.01 µM). It also gave an MIC [5] of 5 µg/mL (≈ 14 µM), an MIC [6] of 2.5 µg/mL (≈ 7.01 µM) and an MIC [7] of 2.5 µg/mL (≈ 7.01 µM). For the same compound, the MIC [8] was 2.5 µg/mL (≈ 7.01 µM), the MIC [9] was 0.1 µg/mL (≈ 0.281 µM) and the MIC [11] was greater than 40 µg/mL. For the same compound, the MIC [12] was greater than 40 µg/mL, the MIC [13] was greater than 40 µg/mL and the MIC [14] was 40 µg/mL (≈ 112 µM). For the same compound, the MIC [15] was greater than 40 µg/mL, the MIC [16] was 0.625 µg/mL (≈ 1.75 µM) and the MIC [21] was 0.312 µg/mL (≈ 0.875 µM). The MIC [17] was 20 µg/mL (≈ 56.1 µM).

— patent US4312874A, “Antibacterial compounds, processes for their preparation and compositions containing them” (Beecham Group Limited, priority 1979, dated 1982)
